A word on the IC50: it is the concentration needed to halve the response being measured.

Test [1] has as its system human fibroblastoid M1 cells. Put plainly: Comet assay, inhibition of 2CA- or IPP-mediated DNA damage protection by antagonists/inhibitors. In kind it is cell-based. The settings on record: for effect on 2CA-mediated DNA damage protection / effect on IPP-mediated DNA damage protection: M1 cells pre-incubated with antagonist/inhibitor (lactacystin 5 μM, lovastatin 5 μM, GGTI-2147 0.2 μM, FTI-277 1 μM; others various concentrations), then 100 μM H2O2; for effect on 2CA-mediated DNA damage protection: then 2CA; for IC50: AR antagonists, M1 cells, 100 μM H2O2, Comet assay, read-out: IC50 (pM), block of 2CA-mediated DNA damage protection; for effect on IPP-mediated DNA damage protection: then IPP. The method, then:
(§1) A single-cell gel electrophoresis (SCGE) assay, known as the “Comer” assay was performed to detect/quantify DNA damage by identifying DNA-strand breakage in individual cells, for example. The assay was performed using a kit commercially-available from Trevigen, Inc., of Gaithersburg, Md., as “CometAssay™.” See P. J. McCarthy et al. (1997) Mutagenesis 12:209-214; A. R. Collins et al. (2001) Biochem. Soc. Trans. 29:337-341. Sub-confluent cells were washed with phosphate buffered saline (PBS) and detached from the tissue culture flasks using a 0.05% trypsin solution. After centrifugation, the cells were washed and re-suspended in serum-free DMEM medium. The cells were divided into Eppendorf tubes (1.5 ml), and centrifuged at 2500 rotations per minutes (rpm) for ten minutes. Signal-modulating agents were added and samples were kept in a 37° C. incubator for thirty minutes. In some experiments, the cells were pre-incubated with various inhibitors for the indicated times at 37° C. At the end of the incubation period with signal-modulating chemicals, the cells were washed with PBS and treated with 100 μM H2O2 in 0.5 ml PBS on ice for twenty minutes. Following the hydrogen peroxide treatment, the cells were immediately microfuged for fifteen seconds. The cells were twice washed with cold PBS, and re-suspended at 1.0×10^5 cells/ml in ice-cold PBS. Five microliter cell suspension were each mixed with 50 μl molten LMAgarose and, thereafter, the mixtures were placed onto slides (CometSlide™).
(§2) The slides were placed at 4° C. in the dark for ten minutes and subsequently immersed in pre-chilled Lysis Solution at 4° C. for an additional thirty minutes. Following this incubation, excess buffer was tapped off from the slides. Subsequently, the slides were placed in a 50 ml Coplin jar containing alkali buffer for thirty minutes at room temperature in the dark and then immersed in 50 ml of TBE buffer for five minutes. The slides were then placed flat onto a gel tray submerged in TBE buffer in a horizontal electrophoresis apparatus, and aligned equidistant from the electrodes. Electrophoresis was performed at one volt per centimeter (cm) for ten minutes. Following this electrophoresis, the samples were fixed in 100% methanol for five minutes and 100% ethanol for five minutes. After drying, 50 μl of diluted SYBR Green Concentrate was added onto each circle of agarose. Comet tail fluorescence intensity was quantified with a Diagnostic Instruments digitized camera, mounted on a Nikon Eclipse E400 microscope, using Scion Image software. Quantification of comet fluorescence was performed as described in P. J. McCarthy et al. (1997) Mutagenesis 12:209-214. Each data point was derived from 30 to 100 individual cells. The data are shown either in arbitrary fluorescent units, or as % DNA damage protection (i.e., the percent decrement in tail fluorescence intensity with test reagent, relative to the intensity recorded in cells treated with hydrogen peroxide only)±S.E.M.
Specifically, […], human fibroblastoid M1 cells were incubated for thirty minutes in either H-89 or 8-bromoguanosine-3′,5′-cyclic monophosphate (8-Br-cGMP) (B), or for fifteen minutes in SNAP, at different concentrations. […] Following induction of oxidative stress, DNA damage was quantified using the Comet assay, as described above. Shown in FIGS. 14-16 are graphs illustrating the DNA damage protection as function of the molar concentration of H-89 (FIG. 14), 8-Br-cGMP (FIG. 15), and SNAP (FIG. 16).
In yet another test, human fibroblastoid M1 cells were pre-incubated for fifteen minutes with different concentrations of the A2bAR antagonist, enprofylline (Enpro).

The subject of test [2] is human fibroblastoid M1 cells. The experiment in a line: Comet assay, protection against H2O2-induced DNA damage. Type of test: cell-based. The settings on record: M1 cells; for IC50: AR agonists and isoprenyls, 100 μM H2O2, Comet assay, read-out: IC50 (pM), DNA damage protection; for triggering of DNA damage protection: various concentrations, 100 μM H2O2. The method, then: as §1, §2
A dose response analysis of DNA damage protection also was performed to determine the efficacy of various doses of isopentenyl diphosphate versus 2-chloroadenosine. The analysis was carried out by pre-incubating human fibroblastoid M1 cells for thirty minutes with different concentrations of isopentenyl diphosphate or 2-chloroadenosine prior to incubating the cells with 100 μM H2O2 to induce oxidative stress. Following induction of oxidative stress, DNA damage was quantified using the Comet assay, as described above.

Test [3] has as its system A1AR-transfected HEK293 cells. Put plainly: Comet assay in A1AR-transfected HEK293 cells. Type of test: cell-based, human. Conditions: A1AR-transfected HEK293 cells, 100 μM H2O2. The method, then: A single-cell gel electrophoresis (SCGE) assay, known as the “Comer” assay was performed to detect/quantify DNA damage by identifying DNA-strand breakage in individual cells, for example. The assay was performed using a kit commercially-available from Trevigen, Inc., of Gaithersburg, Md., as “CometAssay™.” See P. J. McCarthy et al. (1997) Mutagenesis 12:209-214; A. R. Collins et al. (2001) Biochem. Soc. Trans. 29:337-341. Sub-confluent cells were washed with phosphate buffered saline (PBS) and detached from the tissue culture flasks using a 0.05% trypsin solution. After centrifugation, the cells were washed and re-suspended in serum-free DMEM medium. The cells were divided into Eppendorf tubes (1.5 ml), and centrifuged at 2500 rotations per minutes (rpm) for ten minutes. Signal-modulating agents were added and samples were kept in a 37° C. incubator for thirty minutes. In some experiments, the cells were pre-incubated with various inhibitors for the indicated times at 37° C. At the end of the incubation period with signal-modulating chemicals, the cells were washed with PBS and treated with 100 μM H2O2 in 0.5 ml PBS on ice for twenty minutes. Following the hydrogen peroxide treatment, the cells were immediately microfuged for fifteen seconds. The cells were twice washed with cold PBS, and re-suspended at 1.0×10^5 cells/ml in ice-cold PBS. […]
The slides were placed at 4° C. in the dark for ten minutes and subsequently immersed in pre-chilled Lysis Solution at 4° C. for an additional thirty minutes. […] Comet tail fluorescence intensity was quantified with a Diagnostic Instruments digitized camera, mounted on a Nikon Eclipse E400 microscope, using Scion Image software. Quantification of comet fluorescence was performed as described in P. J. McCarthy et al. (1997) Mutagenesis 12:209-214. […] The data are shown either in arbitrary fluorescent units, or as % DNA damage protection (i.e., the percent decrement in tail fluorescence intensity with test reagent, relative to the intensity recorded in cells treated with hydrogen peroxide only)±S.E.M. […]

Some results are limits rather than exact numbers.

For the compound `CC(=O)N[C@@H](C(=O)O)C(C)(C)SN=O` (racemic) [SNAP], the “effect on 2CA-mediated DNA damage protection” value in test [1] is listed as “dose-dependent inhibition of 2CA-mediated antioxidative signal”.
Take `CC(C)=CCC/C(C)=C/CC/C(C)=C/CO[P@@](=O)(O)OP(=O)(O)O` (stereo in doubt) [FPP, farnesyl diphosphate]: the half-maximal inhibitory concentration (IC50) in test [2] (Homo sapiens) is > 1e+07 pM.
Consider `Nc1ncnc2c1nc(Br)n2[C@@H]1O[C@@H]2COP(=O)(O)O[C@H]2[C@H]1O` [8-Br-cAMP, 8-bromo adenosine 3′,5′-cyclic monophosphate], for which the “triggering of DNA damage protection” value in test [2] is given as “produced similar protection against oxidative DNA damage”. Moreover, the “DNA damage protection response” value in test [3] is given as “responded efficiently”.
`Nc1nc2c(nc(Br)n2[C@@H]2O[C@@H]3COP(=O)(O)O[C@H]3[C@H]2O)c(=O)[nH]1` [8-Br-cGMP, 8-bromoguanosine-3′,5′-cyclic monophosphate]: the “effect on 2CA-mediated DNA damage protection” value in test [1] is on record as “dose-dependent inhibition of 2CA-mediated antioxidative signal”.
For the compound `CCNC(=O)[C@H]1O[C@@H](n2cnc3c(N)nc(NCCc4ccc(CCC(=O)O)cc4)nc32)[C@H](O)[C@@H]1O` [CGS21680, 2-[p-2-(carbonyl-ethyl)-phenyethylamino]-5′-N-ethylcarboxaminoadenosine], the half-maximal inhibitory concentration (IC50) in test [2] (Homo sapiens) was > 3e+07 pM. Also, the “triggering of DNA damage protection” value in test [2] is reported as “failed to transduce the signal”.
On to `Cn1c(=O)c2c(nc(C=Cc3cccc(Cl)c3)n2C)n(C)c1=O` [CSC, 8-(3-chlorostyryl) caffeine], for which the IC50 in test [1] (Homo sapiens) is > 1e+07 pM. Moreover, the “effect on 2CA-mediated DNA damage protection” value in test [1] was “failed to block 2CA-mediated DNA damage protection”.
As to `CCCn1c(=O)c2[nH]c(C3CCCC3)nc2n(CCC)c1=O` [DPCPX, [(3)H]1,3-dipropyl-8-cyclopentylxanthine], in test [1], the IC50 was > 1e+07 pM and the “effect on 2CA-mediated DNA damage protection” value is on record as “failed to block 2CA-mediated DNA damage protection”.
On to `CCCn1c(=O)[nH]c(=O)c2nc[nH]c21` [Enprofylline, enprofylline], for which, in test [1], the IC50 worked out at 1.8e+06 pM, the “effect on 2CA-mediated DNA damage protection” value is given as “effectively blocked the signal” and the “effect on IPP-mediated DNA damage protection” value is recorded as “the IPP-mediated effect was resistant”.
Consider `COC(=O)[C@H](CCSC)NC(=O)c1ccc(NC[C@@H](N)CS)cc1-c1ccccc1` [FTI-277], for which, in test [1], the “effect on 2CA-mediated DNA damage protection” value is on record as “Neither GGTI-2147 (FIG. 24B) nor FTI-277 (FIG. 25) had a significant effect” and the “effect on IPP-mediated DNA damage protection” value is given as “had no effect on isopentenyl diphosphate activity”.
Regarding `CC(C)=CCC/C(C)=C/CC/C(C)=C/CC/C(C)=C/COP(=O)(O)OP(=O)(O)O` [GGPP, geranylgeranyl diphosphate], in test [2], the half-maximal inhibitory concentration (IC50) is 660 pM and the “triggering of DNA damage protection” value was “effective in triggering antioxidative activity”.
With `COC(=O)[C@H](CC(C)C)NC(=O)c1ccc(NCc2cnc[nH]2)cc1-c1cccc2ccccc12` [GGTI-2147], in test [1], the “effect on 2CA-mediated DNA damage protection” value is on record as “Neither GGTI-2147 (FIG. 24B) nor FTI-277 (FIG. 25) had a significant effect” and the “effect on IPP-mediated DNA damage protection” value is “effectively blocked IPP-mediated DNA damage protection”.
For `O=S(=O)(NCCNCC=Cc1ccc(Br)cc1)c1cccc2cnccc12` [H-89, N-[2-(p-bromocynnamylamino)ethyl]-5-isoquinolinesulfonamide] the same measures were “dose-dependent inhibition of 2CA-mediated antioxidative signal” and “the IPP-mediated effect was resistant”.
For the compound `CNC(=O)[C@H]1O[C@@H](n2cnc3c(NCc4cccc(I)c4)ncnc32)[C@H](O)[C@@H]1O` [IB-MECA, N6-(3-iodobenzyl)adenosine-5′-N-methyluronamide], in test [2], the 50% inhibitory concentration (IC50) was > 1e+07 pM and the “triggering of DNA damage protection” value is listed as “failed to transduce the signal”.
Take `C=C(C)CCOP(=O)(O)O` [IMP, isopentenyl monophosphate]: in test [2], the 50% inhibitory concentration (IC50) was > 1e+07 pM and the “triggering of DNA damage protection” value is given as “failed to trigger antioxidative signaling”.
For `CCNC(=O)C1OC(n2cnc3c(N)ncnc32)C(O)C1O` (centres unmarked) [NECA, 5′-(N-ethylcarboxyamido)-adenosine] the same measures were < 1000 pM and “triggered DNA damage protection”.
In the case of `CCCCC[C@H](O)/C=C/[C@H]1[C@H](O)CC(=O)[C@@H]1CCCCCCC(=O)O` [PGE1, Prostaglandin E1], the “triggering of DNA damage protection” value in test [2] is on record as “induction of resistance to oxidative DNA damage”.
Turning to `CCCn1c(=O)c2[nH]c(-c3ccc(OCC(=O)NCCN)cc3)nc2n(CCC)c1=O` [XAC, xanthine amine congener], in test [1], the IC50 came to 3.2e+06 pM and the “effect on 2CA-mediated DNA damage protection” value was “effectively blocked the signal”.
For `CC(=O)N[C@@H](CSC(=O)[C@]1([C@@H](O)C(C)C)NC(=O)[C@H](C)[C@@H]1O)C(=O)O` [lactacystin], in test [1], the “effect on 2CA-mediated DNA damage protection” value is recorded as “did not similarly block 2CA-mediated DNA damage protection signaling” and the “effect on IPP-mediated DNA damage protection” value is given as “blocked IPP-mediated DNA damage protection signaling”.
For `CC[C@H](C)C(=O)O[C@H]1C[C@@H](C)C=C2C=C[C@H](C)[C@H](CC[C@@H]3C[C@@H](O)CC(=O)O3)[C@H]21` [lovastatin] the same measures were “did not similarly block 2CA-mediated DNA damage protection signaling” and “completely blocked IPP-mediated DNA damage protection signaling”.

Source of the values: patent publication US20050215529A1, “Method of treating oxidative stress-associated conditions with isopentenyl diphosphate” (THE REGENTS OF THE UNIVERSITY OF MICHIGAN, priority 2004, published 2005).
